Experimental data from ChEMBL document CHEMBL1145850, “Pharmacophoric requirements for the cannabinoid side chain. Probing the cannabinoid receptor subsite at C1'” (J Med Chem, 2003).

Key:
Cannabinoid receptor 2 = Cannabinoid receptor 2 (Mus musculus, UniProt P47936); experiment: Compound was tested for its binding affinity against mouse spleen Cannabinoid receptor 2 using [3H]CP-55940 as radioligand; format: tissue-based
Cannabinoid receptor 1 = Cannabinoid receptor 1 (Rattus norvegicus, UniProt P20272); experiment: Binding affinity against rat brain Cannabinoid receptor 1 using [3H]CP-55940
Cannabinoid receptor 1, sequence (P20272 whole entry): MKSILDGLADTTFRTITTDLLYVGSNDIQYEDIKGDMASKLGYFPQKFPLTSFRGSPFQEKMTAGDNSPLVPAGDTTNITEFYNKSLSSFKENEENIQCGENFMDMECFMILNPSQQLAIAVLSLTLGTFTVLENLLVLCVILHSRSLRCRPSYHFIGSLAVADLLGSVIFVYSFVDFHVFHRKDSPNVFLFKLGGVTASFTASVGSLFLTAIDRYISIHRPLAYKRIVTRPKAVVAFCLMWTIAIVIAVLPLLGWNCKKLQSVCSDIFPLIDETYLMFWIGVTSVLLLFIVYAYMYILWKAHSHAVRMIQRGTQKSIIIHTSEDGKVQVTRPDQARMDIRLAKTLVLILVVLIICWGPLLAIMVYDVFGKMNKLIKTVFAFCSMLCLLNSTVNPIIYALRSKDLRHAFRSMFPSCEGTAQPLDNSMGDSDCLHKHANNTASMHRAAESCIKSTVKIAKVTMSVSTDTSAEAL

Cannabinoid receptor 2, sequence (P47936 whole entry): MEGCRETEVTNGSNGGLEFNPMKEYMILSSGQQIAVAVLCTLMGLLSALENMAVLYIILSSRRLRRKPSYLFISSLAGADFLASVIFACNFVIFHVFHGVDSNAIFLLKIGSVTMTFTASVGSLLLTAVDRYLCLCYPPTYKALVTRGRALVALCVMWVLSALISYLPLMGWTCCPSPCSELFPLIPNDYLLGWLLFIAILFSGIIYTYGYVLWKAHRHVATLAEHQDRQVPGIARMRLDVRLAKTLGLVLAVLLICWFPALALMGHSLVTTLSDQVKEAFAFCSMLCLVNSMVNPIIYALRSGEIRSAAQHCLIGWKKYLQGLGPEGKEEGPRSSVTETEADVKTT

Compound	Ki (Cannabinoid receptor 2) [nM]	Ki (Cannabinoid receptor 1) [nM]
CCCCCCC1(c2cc(O)c3c(c2)OC(C)(C)[C@@H]2CC=C(C)C[C@@H]32)OCCO1	0.22	0.52
CCCCCCC1(c2cc(O)c3c(c2)OC(C)(C)[C@@H]2CC=C(C)C[C@@H]32)SCCCS1	3.6	1.8
CCCCCCC1(c2cc(O)c3c(c2)OC(C)(C)[C@@H]2CC=C(C)C[C@@H]32)CCCC1	1.92	0.45
CC1=CC[C@@H]2[C@@H](C1)c1c(O)cc(C3SCCS3)cc1OC2(C)C	103	168
CCCCCCC1(c2cc(O)c3c(c2)OC(C)(C)[C@@H]2CC=C(C)C[C@@H]32)Sc2ccccc2S1	257	56.9
CCCCCCC1(c2cc(O)c3c(c2)OC(C)(C)[C@@H]2CC=C(C)C[C@@H]32)SC(C)C(C)S1 (stereo partly drawn)	19.7	32.3
CCCCCCCc1cc(O)c2c(c1)OC(C)(C)[C@@H]1CC=C(C)C[C@@H]21	–	22
